Assay results as given in ChEMBL document CHEMBL1154297, “Inhibitor profiling of the Pseudomonas aeruginosa virulence factor LasB using N-alpha mercaptoamide template-based inhibitors” (Bioorg Med Chem Lett, 2009).

target: Elastase (Pseudomonas aeruginosa (strain ATCC 15692 / PAO1 / 1C / PRS 101 / LMG12228), UniProt P14756); test: Inhibition of Pseudomonas aeruginosa LasB by fluorimetric assay in buffer of pH 7.2; conditions: not given
Sequence (P14756 whole entry): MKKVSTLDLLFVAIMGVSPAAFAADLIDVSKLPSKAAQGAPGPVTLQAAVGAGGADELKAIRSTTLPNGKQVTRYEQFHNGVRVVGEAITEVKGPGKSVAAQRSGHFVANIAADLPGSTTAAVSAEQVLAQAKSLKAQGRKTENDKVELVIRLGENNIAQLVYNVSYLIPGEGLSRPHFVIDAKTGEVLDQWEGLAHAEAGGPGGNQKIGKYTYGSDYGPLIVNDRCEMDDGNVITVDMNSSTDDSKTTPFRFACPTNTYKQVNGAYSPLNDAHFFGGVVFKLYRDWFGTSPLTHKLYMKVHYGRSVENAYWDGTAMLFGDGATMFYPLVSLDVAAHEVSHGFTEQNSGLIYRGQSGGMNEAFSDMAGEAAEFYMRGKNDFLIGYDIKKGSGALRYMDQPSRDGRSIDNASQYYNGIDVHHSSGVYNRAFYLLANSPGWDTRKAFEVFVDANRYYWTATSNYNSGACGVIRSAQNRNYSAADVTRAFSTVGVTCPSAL

Ki	Compound
Not Active	CC(C)C[C@H](NC(=O)[C@H](CS)NC(=O)CS)C(N)=O
Not Active	C[C@@H](O)[C@H](NC(=O)CS)C(=O)N[C@@H](CCCCN)C(N)=O
Not Active	N=C(N)NCCC[C@H](NC(=O)[C@H](CCCNC(=N)N)NC(=O)CS)C(N)=O
Not Active	CC(C)C[C@H](NC(=O)CS)C(=O)N[C@H](C(N)=O)C(C)C
Not Active	CC(C)[C@H](NC(=O)[C@H](CC(=O)O)NC(=O)CS)C(N)=O
Not Active	C[C@H](NC(=O)CS)C(=O)N[C@@H](Cc1ccccc1)C(N)=O
Not Active	NC(=O)CC[C@H](NC(=O)CS)C(=O)N[C@@H](CC(=O)O)C(N)=O
Not Active	NC(=O)[C@H](CC(=O)O)NC(=O)[C@H](CS)NC(=O)CS
Not Active	N=C(N)NCCC[C@H](NC(=O)[C@H](Cc1ccccc1)NC(=O)CS)C(N)=O
Not Active	NC(=O)[C@H](CC(=O)O)NC(=O)[C@H](CCC(=O)O)NC(=O)CS
Not Active	NC(=O)[C@H](CC(=O)O)NC(=O)[C@@H]1CCCN1C(=O)CS
Not Active	NC(=O)[C@H](Cc1c[nH]c2ccccc12)NC(=O)[C@H](CO)NC(=O)CS
Not Active	CC(C)C[C@H](NC(=O)[C@H](CCC(=O)O)NC(=O)CS)C(N)=O
Not Active	N=C(N)NCCC[C@H](NC(=O)[C@H](CCC(=O)O)NC(=O)CS)C(N)=O
Not Active	CSCC[C@H](NC(=O)CS)C(=O)N[C@@H](CC(C)C)C(N)=O
Not Active	NC(=O)[C@H](CC(=O)O)NC(=O)[C@H](CC(=O)O)NC(=O)CS
Not Active	NC(=O)[C@H](CC(=O)O)NC(=O)[C@H](Cc1c[nH]cn1)NC(=O)CS
Not Active	CC(C)[C@H](NC(=O)CS)C(=O)N[C@@H](CC(=O)O)C(N)=O
Not Active	NC(=O)CC[C@H](NC(=O)CS)C(=O)N[C@@H](Cc1ccccc1)C(N)=O
Not Active	NCCCC[C@H](NC(=O)[C@H](CO)NC(=O)CS)C(N)=O
Not Active	C[C@@H](O)[C@H](NC(=O)CS)C(=O)N[C@@H](CC(=O)O)C(N)=O
Not Active	NC(=O)C[C@H](NC(=O)CS)C(=O)N[C@@H](CC(=O)O)C(N)=O
Not Active	NC(=O)[C@H](Cc1ccccc1)NC(=O)[C@@H]1CCCN1C(=O)CS
Not Active	N=C(N)NCCC[C@H](NC(=O)[C@H](Cc1c[nH]cn1)NC(=O)CS)C(N)=O
Not Active	NCCCC[C@H](NC(=O)CS)C(=O)N[C@@H](Cc1c[nH]c2ccccc12)C(N)=O
Not Active	CC(C)C[C@H](NC(=O)[C@@H](NC(=O)CS)[C@@H](C)O)C(N)=O

same assay, conditions: read-out: Ki

Compound	Ki
N=C(N)NCCC[C@H](NC(=O)[C@@H]1CCCN1C(=O)CS)C(N)=O	56 µM
CC(C)[C@H](NC(=O)[C@H](CO)NC(=O)CS)C(N)=O	229 µM
CC(C)[C@H](NC(=O)CNC(=O)CS)C(N)=O	457 µM
NCCCC[C@H](NC(=O)[C@H](CC(N)=O)NC(=O)CS)C(N)=O	289 µM
NC(=O)[C@H](Cc1c[nH]c2ccccc12)NC(=O)[C@H](Cc1cnc[nH]1)NC(=O)CS	18 µM
CC(C)[C@H](NC(=O)[C@H](C)NC(=O)CS)C(N)=O	51 µM
NC(=O)[C@H](CCCN=C(N)N)NC(=O)[C@H](Cc1c[nH]c2ccccc12)NC(=O)CS	25 µM
C[C@H](NC(=O)CS)C(=O)N[C@@H](Cc1c[nH]c2ccccc12)C(N)=O	395 µM
NC(=O)[C@H](Cc1ccccc1)NC(=O)[C@H](Cc1c[nH]c2ccccc12)NC(=O)CS	1.1 µM
NC(=O)[C@H](CC(=O)O)NC(=O)[C@H](Cc1ccc(O)cc1)NC(=O)CS	5.5 µM
NCCCC[C@H](NC(=O)[C@H](CCC(=O)O)NC(=O)CS)C(N)=O	553 µM
CC(C)[C@H](NC(=O)[C@@H](NC(=O)CS)C(C)C)C(N)=O	10 µM
N=C(N)NCCC[C@H](NC(=O)[C@H](CS)NC(=O)CS)C(N)=O	646 µM
C[C@H](NC(=O)CS)C(=O)N[C@@H](CCCNC(=N)N)C(N)=O	115 µM
CC(C)[C@H](NC(=O)[C@H](Cc1c[nH]c2ccccc12)NC(=O)CS)C(N)=O	4.1 µM
CC(C)[C@H](NC(=O)[C@H](CS)NC(=O)CS)C(N)=O	161 µM
NC(=O)[C@H](Cc1c[nH]c2ccccc12)NC(=O)[C@H](CCCN=C(N)N)NC(=O)CS	125 µM
NC(=O)[C@H](Cc1ccccc1)NC(=O)[C@H](CO)NC(=O)CS	75 µM
CC(C)C[C@H](NC(=O)CS)C(=O)N[C@@H](CC(=O)O)C(N)=O	587 µM
NC(=O)[C@H](Cc1c[nH]c2ccccc12)NC(=O)[C@@H]1CCCN1C(=O)CS	562 µM
NC(=O)[C@H](Cc1c[nH]c2ccccc12)NC(=O)[C@H](Cc1c[nH]c2ccccc12)NC(=O)CS	49 µM
CC(C)[C@H](NC(=O)[C@H](CC(N)=O)NC(=O)CS)C(N)=O	180 µM
CC(C)[C@H](NC(=O)CS)C(=O)N[C@@H](Cc1ccccc1)C(N)=O	72 µM
CC(C)[C@H](NC(=O)[C@H](CCC(=O)O)NC(=O)CS)C(N)=O	730 µM
NCCCC[C@H](NC(=O)CS)C(=O)N[C@@H](CC(=O)O)C(N)=O	971 µM

Compound	Ki
CC(C)C[C@H](NC(=O)[C@H](Cc1ccc(O)cc1)NC(=O)CS)C(N)=O	33 µM
NC(=O)[C@H](Cc1ccccc1)NC(=O)[C@H](Cc1ccc(O)cc1)NC(=O)CS	6.5 µM
CC(C)C[C@H](NC(=O)[C@H](CO)NC(=O)CS)C(N)=O	510 µM
NCCCC[C@H](NC(=O)[C@H](Cc1c[nH]cn1)NC(=O)CS)C(N)=O	332 µM
CC(C)C[C@H](NC(=O)CS)C(=O)N[C@@H](CCCNC(=N)N)C(N)=O	623 µM
NCCCC[C@H](NC(=O)[C@H](CC(=O)O)NC(=O)CS)C(N)=O	491 µM
NCCCC[C@H](NC(=O)[C@H](Cc1ccccc1)NC(=O)CS)C(N)=O	76 µM
CC(C)C[C@H](NC(=O)[C@H](Cc1c[nH]cn1)NC(=O)CS)C(N)=O	306 µM
NC(=O)[C@H](CCCN=C(N)N)NC(=O)[C@H](CC(=O)O)NC(=O)CS	551 µM
NCCCC[C@H](NC(=O)[C@H](CCC(N)=O)NC(=O)CS)C(N)=O	380 µM
CSCC[C@H](NC(=O)CS)C(=O)N[C@@H](CCCNC(=N)N)C(N)=O	6.6 µM
NC(=O)CC[C@H](NC(=O)CS)C(=O)N[C@@H](CCCN=C(N)N)C(N)=O	217 µM
NCCCC[C@H](NC(=O)CNC(=O)CS)C(N)=O	451 µM
C[C@H](NC(=O)CS)C(=O)N[C@@H](CC(=O)O)C(N)=O	316 µM
CC(C)[C@H](NC(=O)[C@@H]1CCCN1C(=O)CS)C(N)=O	157 µM
C[C@@H](O)[C@H](NC(=O)CS)C(=O)N[C@@H](Cc1ccccc1)C(N)=O	225 µM
CC(C)C[C@H](NC(=O)CS)C(=O)N[C@@H](Cc1ccccc1)C(N)=O	113 µM
NCCCC[C@H](NC(=O)[C@H](Cc1c[nH]c2ccccc12)NC(=O)CS)C(N)=O	10 µM
CC(C)[C@H](NC(=O)[C@H](CCC(N)=O)NC(=O)CS)C(N)=O	937 µM
NC(=O)[C@H](Cc1ccccc1)NC(=O)[C@H](CCC(=O)O)NC(=O)CS	146 µM
CC(C)C[C@H](NC(=O)CS)C(=O)N[C@@H](CCCCN)C(N)=O	14 µM
CC(C)C[C@H](NC(=O)[C@H](Cc1c[nH]c2ccccc12)NC(=O)CS)C(N)=O	3.7 µM
NC(=O)[C@H](Cc1ccccc1)NC(=O)[C@H](CS)NC(=O)CS	131 µM
CC(C)C[C@H](NC(=O)[C@H](CC(N)=O)NC(=O)CS)C(N)=O	508 µM
NCCCC[C@H](NC(=O)[C@H](CS)NC(=O)CS)C(N)=O	274 µM

Compound	Ki
NC(=O)[C@H](Cc1c[nH]c2ccccc12)NC(=O)[C@H](CS)NC(=O)CS	108 µM
CSCC[C@H](NC(=O)CS)C(=O)N[C@@H](Cc1ccccc1)C(N)=O	867 µM
CSCC[C@H](NC(=O)CS)C(=O)N[C@@H](CC(=O)O)C(N)=O	7 µM
CC(C)C[C@H](NC(=O)[C@H](CC(=O)O)NC(=O)CS)C(N)=O	118 µM
N=C(N)NCCC[C@H](NC(=O)CS)C(=O)N[C@@H](CCCCN)C(N)=O	135 µM
NC(=O)[C@H](Cc1c[nH]c2ccccc12)NC(=O)[C@H](CC(=O)O)NC(=O)CS	207 µM
NC(=O)[C@H](CCCN=C(N)N)NC(=O)[C@H](Cc1ccc(O)cc1)NC(=O)CS	3 µM
C[C@H](NC(=O)CS)C(=O)N[C@@H](CCCCN)C(N)=O	153 µM
NCCCC[C@H](NC(=O)[C@H](Cc1ccc(O)cc1)NC(=O)CS)C(N)=O	8.5 µM
NC(=O)[C@H](CC(=O)O)NC(=O)[C@H](CCCN=C(N)N)NC(=O)CS	650 µM
CC(C)[C@H](NC(=O)[C@H](CCCCN)NC(=O)CS)C(N)=O	555 µM
NC(=O)C[C@H](NC(=O)CS)C(=O)N[C@@H](Cc1ccccc1)C(N)=O	37 µM
NC(=O)[C@H](Cc1ccccc1)NC(=O)[C@H](Cc1cnc[nH]1)NC(=O)CS	21 µM
NC(=O)[C@H](Cc1c[nH]c2ccccc12)NC(=O)[C@H](CCC(=O)O)NC(=O)CS	704 µM
NCCCC[C@H](NC(=O)CS)C(=O)N[C@@H](Cc1ccccc1)C(N)=O	126 µM
NC(=O)[C@H](Cc1c[nH]c2ccccc12)NC(=O)[C@H](Cc1ccc(O)cc1)NC(=O)CS	14 µM
CC(C)[C@H](NC(=O)CS)C(=O)N[C@@H](CCCCN)C(N)=O	22 µM
CC(C)C[C@H](NC(=O)[C@H](C)NC(=O)CS)C(N)=O	21 µM
NC(=O)[C@H](Cc1c[nH]c2ccccc12)NC(=O)CNC(=O)CS	122 µM
N=C(N)NCCC[C@H](NC(=O)[C@H](CC(N)=O)NC(=O)CS)C(N)=O	280 µM
CC(C)C[C@H](NC(=O)CS)C(=O)N[C@@H](Cc1c[nH]c2ccccc12)C(N)=O	300 µM
NC(=O)[C@H](CC(=O)O)NC(=O)[C@H](Cc1c[nH]c2ccccc12)NC(=O)CS	38 µM
NC(=O)[C@H](Cc1c[nH]c2ccccc12)NC(=O)[C@H](Cc1ccccc1)NC(=O)CS	206 µM
NC(=O)CC[C@H](NC(=O)CS)C(=O)N[C@@H](Cc1c[nH]c2ccccc12)C(N)=O	91 µM
CC[C@@H](C)[C@H](NC(=O)CS)C(=O)N[C@@H](CC(=O)O)C(N)=O	142 µM
